Values after ≈ are worked out from the molar mass of the structure shown.
Experiment: Inhibition of yeast alpha-glucosidase
Parameters: species or system Saccharomyces cerevisiae

IC50: 0.16 µg/mL (≈ 1.2 µM)
Structure (SMILES): OC[C@H]1NC[C@@H](O)[C@@H]1O
